Measured values published in US12139520B2 (priority 2020, dated 2024).
Bridge positions count the residues as written; N and C are the ends. Square brackets hold non-standard residues; d marks the D form. Peptide text beside a SMILES is read from it. Hyp = O=C(O)[C@@H]1C[C@@H](O)CN1

What was measured:
hAMY3 receptor = molecular target: T1, hAMY3 receptor (Homo sapiens, UniProt O60896+P30988); test: cAMP assay for in vitro receptor activation, hAMY3-R; type: cell-based; conditions: cAMP assay, hAMY3 receptor; read-out: hAMY3R EC50
T1 sequence (P30988 25-474): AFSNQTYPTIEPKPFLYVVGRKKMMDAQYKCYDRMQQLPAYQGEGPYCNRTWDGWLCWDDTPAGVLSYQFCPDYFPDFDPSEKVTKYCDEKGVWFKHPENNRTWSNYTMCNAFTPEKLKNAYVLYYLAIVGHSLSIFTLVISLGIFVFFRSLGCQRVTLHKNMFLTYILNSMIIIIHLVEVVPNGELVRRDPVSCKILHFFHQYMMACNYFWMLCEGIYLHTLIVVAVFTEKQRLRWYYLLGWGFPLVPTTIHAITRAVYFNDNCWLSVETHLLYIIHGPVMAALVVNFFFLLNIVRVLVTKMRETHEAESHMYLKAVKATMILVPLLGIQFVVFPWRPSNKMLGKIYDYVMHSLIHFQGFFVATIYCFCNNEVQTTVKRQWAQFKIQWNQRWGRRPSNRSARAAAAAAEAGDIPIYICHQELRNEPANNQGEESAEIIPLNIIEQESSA
T1 sequence (O60896 24-148 partner): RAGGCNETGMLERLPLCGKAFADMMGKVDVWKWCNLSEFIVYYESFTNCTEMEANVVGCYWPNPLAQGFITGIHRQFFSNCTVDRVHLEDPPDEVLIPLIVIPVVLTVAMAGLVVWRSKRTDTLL
Method in brief: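 Receptor activation was measured as cAMP accumulation in a monoclonal cell line stably overexpressing hAMY3. Stimulation with graded doses lasted 30 min at room temperature in the presence of 0.5 mM IBMX, with human amylin as positive control.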

[1] = Physical stability of peptide analogues (Thioflavin T fibrillation); type: physicochemical; conditions: maximum ThT signal normalized between hAMY maximum and buffer background; 40° C., shaking, four days; pH 7 per table title
Method in brief: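 Peptides in 50 mM sodium acetate pH 4 or 50 mM sodium phosphate pH 7 were preincubated 1 h, mixed with 4 μM ThT, held at 40° C with 700 rpm shaking before each read. Fluorescence (ex 450/em 480 nm) every 10 min for four days; LOESS-smoothed maximum signal normalized in percent between hAMY and buffer.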

CC[C@H](C)[C@H](NC(=O)[C@H](CCC(N)=O)NC(=O)[C@H](Cc1c[nH]cn1)NC(=O)[C@H](C)NC(=O)[C@H](CC(C)C)NC(=O)[C@H](CCCNC(=N)N)NC(=O)[C@H](CCC(N)=O)NC(=O)[C@@H](NC(=O)[C@@H](NC(=O)[C@@H]1CSSC[C@H](NC(=O)CN)C(=O)N[C@@H](CCCNC(=N)N)C(=O)N[C@@H](Cc2ccccc2)C(=O)NCC(=O)N[C@@H]([C@@H](C)O)C(=O)N1)[C@@H](C)O)C(C)C)C(=O)N[C@@H](Cc1ccc(O)cc1)C(=O)N[C@@H](CCC(N)=O)C(=O)N[C@@H](Cc1ccccc1)C(=O)N[C@H](C(=O)N[C@@H](CC(=O)O)C(=O)N[C@@H](CCCCN)C(=O)N[C@@H](CC(=O)O)C(=O)N[C@@H](CCCCN)C(=O)N[C@@H](CC(=O)O)C(=O)N[C@@H](CC(N)=O)C(=O)N[C@H](C(=O)N[C@@H](C)C(=O)N1CCC[C@H]1C(=O)N[C@@H](CCCNC(=N)N)C(=O)N[C@@H](CO)C(=O)N[C@@H](CC(N)=O)C(=O)N[C@H](C(=O)N[C@@H](CO)C(=O)N1CCC[C@H]1C(=O)N[C@@H](CCC(N)=O)C(=O)NCC(=O)N[C@@H](Cc1ccc(O)cc1)C(N)=O)C(C)C)C(C)C)[C@@H](C)O [compound 131] (H-GCRFGTCTVQRLAHQIYQFTDKDKDNVAPRSNVSPQGY-NH2; disulfide 2-7)
EC50 (hAMY3 receptor): 0.031 nM
Max ThT signal (%) [1]: 6.800%

CC[C@H](C)[C@H](NC(=O)[C@H](CCC(N)=O)NC(=O)[C@H](Cc1c[nH]cn1)NC(=O)[C@H](C)NC(=O)[C@H](CC(C)C)NC(=O)[C@H](CCCNC(=N)N)NC(=O)[C@H](CCC(N)=O)NC(=O)[C@@H](NC(=O)[C@@H](NC(=O)[C@@H]1CSSC[C@H](NC(=O)CN)C(=O)N[C@@H](CCCNC(=N)N)C(=O)N[C@@H](Cc2ccccc2)C(=O)NCC(=O)N[C@@H]([C@@H](C)O)C(=O)N1)[C@@H](C)O)C(C)C)C(=O)N[C@@H](Cc1ccc(O)cc1)C(=O)N[C@@H](CCC(N)=O)C(=O)N[C@@H](Cc1ccccc1)C(=O)N[C@H](C(=O)N[C@@H](CC(=O)O)C(=O)N[C@@H](CCCCN)C(=O)N[C@@H](CC(=O)O)C(=O)N[C@@H](CCCCN)C(=O)N[C@@H](CC(=O)O)C(=O)N[C@@H](CC(N)=O)C(=O)N[C@H](C(=O)N[C@@H](C)C(=O)N1CCC[C@H]1C(=O)N[C@@H](CCCNC(=N)N)C(=O)N[C@H](C(=O)N[C@@H](CCCCN)C(=O)N[C@H](C(=O)N[C@@H](CO)C(=O)N1CCC[C@H]1C(=O)N[C@@H](CCC(N)=O)C(=O)NCC(=O)N1C[C@H](O)C[C@H]1C(N)=O)C(C)C)[C@@H](C)O)C(C)C)[C@@H](C)O [compound 132] (H-GCRFGTCTVQRLAHQIYQFTDKDKDNVAPRTKVSPQG[Hyp]-NH2; disulfide 2-7; N-terminus assumed)
EC50 (hAMY3 receptor): 0.031 nM
Max ThT signal (%) [1]: 5.200%

CC[C@H](C)[C@H](NC(=O)[C@H](CCC(N)=O)NC(=O)[C@H](Cc1c[nH]cn1)NC(=O)[C@H](C)NC(=O)[C@H](CC(C)C)NC(=O)[C@H](CCCNC(=N)N)NC(=O)[C@H](CCC(N)=O)NC(=O)[C@@H](NC(=O)[C@@H](NC(=O)[C@@H]1CSSC[C@H](NC(=O)CN)C(=O)N[C@@H](CCCNC(=N)N)C(=O)N[C@@H](Cc2ccccc2)C(=O)NCC(=O)N[C@@H]([C@@H](C)O)C(=O)N1)[C@@H](C)O)C(C)C)C(=O)N[C@@H](Cc1ccc(O)cc1)C(=O)N[C@@H](CCC(N)=O)C(=O)N[C@@H](Cc1ccccc1)C(=O)N[C@H](C(=O)N[C@@H](CC(=O)O)C(=O)N[C@@H](CCCCN)C(=O)N[C@@H](CC(=O)O)C(=O)N[C@@H](CCCCN)C(=O)N[C@@H](CC(=O)O)C(=O)N[C@@H](CC(N)=O)C(=O)N[C@H](C(=O)N[C@@H](C)C(=O)N1CCC[C@H]1C(=O)N[C@@H](CCCNC(=N)N)C(=O)N[C@H](C(=O)N[C@@H](CCCCN)C(=O)N[C@H](C(=O)N[C@@H](CO)C(=O)N1CCC[C@H]1C(=O)N[C@@H](CC(N)=O)C(=O)NCC(=O)N1C[C@H](O)C[C@H]1C(N)=O)C(C)C)[C@@H](C)O)C(C)C)[C@@H](C)O [compound 134] (H-GCRFGTCTVQRLAHQIYQFTDKDKDNVAPRTKVSPNG[Hyp]-NH2; disulfide 2-7; N-terminus assumed)
EC50 (hAMY3 receptor): 0.032 nM
Max ThT signal (%) [1]: 17.400%

CC[C@H](C)[C@H](NC(=O)[C@H](CCC(N)=O)NC(=O)[C@H](Cc1c[nH]cn1)NC(=O)[C@H](C)NC(=O)[C@H](CC(C)C)NC(=O)[C@H](CCCNC(=N)N)NC(=O)[C@H](CCC(N)=O)NC(=O)[C@@H](NC(=O)[C@@H](NC(=O)[C@@H]1CSSC[C@H](NC(=O)CN)C(=O)N[C@@H](CCCNC(=N)N)C(=O)N[C@@H](Cc2ccccc2)C(=O)NCC(=O)N[C@@H]([C@@H](C)O)C(=O)N1)[C@@H](C)O)C(C)C)C(=O)N[C@@H](Cc1ccc(O)cc1)C(=O)N[C@@H](CCC(N)=O)C(=O)N[C@@H](Cc1ccccc1)C(=O)N[C@H](C(=O)N[C@@H](CC(=O)O)C(=O)N[C@@H](CCCCN)C(=O)N[C@@H](CC(=O)O)C(=O)N[C@@H](CCCCN)C(=O)N[C@@H](CC(=O)O)C(=O)N[C@@H](CC(N)=O)C(=O)N[C@H](C(=O)N[C@@H](C)C(=O)N1CCC[C@H]1C(=O)N[C@@H](CCCNC(=N)N)C(=O)N[C@@H](CO)C(=O)N[C@@H](CC(N)=O)C(=O)N[C@H](C(=O)NCC(=O)N1CCC[C@H]1C(=O)N[C@@H](CCC(N)=O)C(=O)NCC(=O)N1C[C@H](O)C[C@H]1C(N)=O)C(C)C)C(C)C)[C@@H](C)O [compound 135] (H-GCRFGTCTVQRLAHQIYQFTDKDKDNVAPRSNVGPQG[Hyp]-NH2; disulfide 2-7; N-terminus assumed)
EC50 (hAMY3 receptor): 0.033 nM
Max ThT signal (%) [1]: 3.300%

CC[C@H](C)[C@H](NC(=O)[C@H](CCC(N)=O)NC(=O)[C@H](Cc1c[nH]cn1)NC(=O)[C@H](C)NC(=O)[C@H](CC(C)C)NC(=O)[C@H](CCCNC(=N)N)NC(=O)[C@H](CCC(N)=O)NC(=O)[C@@H](NC(=O)[C@@H](NC(=O)[C@@H]1CSSC[C@H](NC(=O)CN)C(=O)N[C@@H](CCCNC(=N)N)C(=O)N[C@@H]([C@@H](C)O)C(=O)NCC(=O)N[C@@H]([C@@H](C)O)C(=O)N1)[C@@H](C)O)C(C)C)C(=O)N[C@@H](Cc1ccc(O)cc1)C(=O)N[C@@H](CCC(N)=O)C(=O)N[C@@H](Cc1ccccc1)C(=O)N[C@H](C(=O)N[C@@H](CC(=O)O)C(=O)N[C@@H](CCCCN)C(=O)N[C@@H](CC(=O)O)C(=O)N[C@@H](CCCCN)C(=O)N[C@@H](CC(=O)O)C(=O)N[C@@H](CC(N)=O)C(=O)N[C@H](C(=O)N[C@@H](C)C(=O)N1CCC[C@H]1C(=O)N[C@@H](CCCNC(=N)N)C(=O)N[C@@H](CO)C(=O)N[C@@H](CC(N)=O)C(=O)N[C@H](C(=O)NCC(=O)N1CCC[C@H]1C(=O)N[C@@H](CCC(N)=O)C(=O)NCC(=O)N[C@@H](Cc1ccc(O)cc1)C(N)=O)C(C)C)C(C)C)[C@@H](C)O [compound 138] (H-GCRTGTCTVQRLAHQIYQFTDKDKDNVAPRSNVGPQGY-NH2; disulfide 2-7; N-terminus assumed)
EC50 (hAMY3 receptor): 0.035 nM
Max ThT signal (%) [1]: 6.800%
